From patent publication US10064885B2, “Metabolic gene, enzyme, and flux targets for cancer therapy” (Massachusetts Institute of Technology, priority 2010, dated 2018)

How the values were obtained:
Type in all cases: cell-based, human
UMRC2 cells = test: ISA of lipogenesis and glucose oxidation in UMRC2 cells expressing ARNT-targeting shRNAs; conditions: UMRC2 cells (VHL-deficient)
Method: (§1) Cell Culture, Isotopic Labeling, and Hypoxia. All cell lines were cultured in Dulbecco's Modified Eagle Medium (DMEM; Mediatech) containing 10% fetal bovine serum (FBS; Invitrogen) and 100 U/ml penicillin/streptomycin (P/S; Mediatech) unless otherwise mentioned. Cell lines were obtained from ATCC unless otherwise noted. The VC3 glioma cell line was provided by Tim Lautenschlaeger (Ohio State University), MDA-MB-231 and HCT116 cell lines were provided by Ferdinando Chiaradonna (University of Milano-Bicocca), MRC5 cells were provided by Stephen Lippard (MIT), SN12C, ACHN, and 786-O cells were provided by Kevin Courtney and Lew Cantley (Harvard Medical School), and MCF10A cells were provided by Joan Brugge (Harvard Medical School), and Huh7 cells were provided by Mike Hemann (MIT). MCF10A cells were cultured in custom DMEM/F12 (Hyclone) containing 5% horse serum, 20 ng/ml EGF, 10 μg/ml insulin, 100 ng/ml cholera toxin, 0.5 mg/ml hydrocortisone, 100 U/ml penicillin/streptomycin, and labeled/unlabeled glucose and glutamine at 18 mM and 2.5 mM, respectively. […] The internal gas content was monitored using Fyrite gas analyzers (Bacharach) for CO2 and O2. […]
(§2) Metabolite Extraction and Gas Chromatography/Mass Spectrometry (GC/MS) Analysis. […] In some ISA experiments, cells were trypsinized, counted, and pelleted prior to lipid extraction as described above. […]

143B cells = test: Isotopomer Spectral Analysis (ISA) of lipogenesis in 143B cells
Method: as §1, §2

A549 cells = test: Isotopomer Spectral Analysis (ISA) of lipogenesis in A549 cells
Method: as §1, §2

For “CCGGGAGAAGTCAGATGGTTTATTTCTCGAGAAATAAACCATCTGACTTCTCTTT TT (CCGGGAGAAGTCAGATGGTTTATTTCTCGAGAAATAAACCATCTGACTTCTCTTTTT; expressed or natural sequence) [ARNT shRNA, pLKO.1 vector targeting ARNT with shRNA, obtained from Open Biosystems]”, which “glucose oxidation and reductive glutamine metabolism” value (UMRC2 cells) is on record?
The value was “modulates glucose oxidation and reductive glutamine metabolism”.

What about the “utilization of [5-13C]glutamine for lipogenesis” value (143B cells) of the same sequence?
The value was “reduced”.

What about the “utilization of [5-13C]glutamine for lipogenesis” value (A549 cells) of the same sequence?
The value was “reduced”.
